The source of these data is US4822800A (Ortho Pharmaceutical Corporation, priority 1986, dated 1989).

Assay [1] concerns adult mongrel dogs. Briefly: acute in vivo cardiotonic activity in anesthetized dogs. The arrangement: species or system dog (adult mongrel). The following applies: Canis lupus familiaris, cardiotonic, relative to controls; for change in vivo at 1.87 mg/kg: dose 1.87 mg/kg intravenous; for change in vivo at 1.875 mg/kg: dose 1.875 mg/kg intravenous; for change in vivo at 3.75 mg/kg: dose 3.75 mg/kg intravenous; for change in vivo at 0.875 mg/kg: dose 0.875 mg/kg intravenous; for change in vivo at 8.75 mg/kg: dose 8.75 mg/kg intravenous. On the procedure: The acute in vivo cardiotonic activity of compounds prepared according to the present invention was determined according to a modification of the procedure described by Alousi et al., Circ. Res., 45, 666 (1979).
In particular, adult mongrel dogs were anesthetized with sodium pentobarbital and were artificially respired. Arterial pressure was monitored via a femoral artery, and the pulse pressure was used to trigger a cardiotachometer for heart rate. Left ventricular pressure was determined with a Millar catheter, and dP/dt (the change in ventricular pressure with time) was derived. Cardiac output was determined by measuring ascending aortic blood flow with an electromagnetic flow probe, and myocardial contractile force was measured with a Walton Brodie strain gauge sutured to the right ventricle. Lead II EKG was also recorded.
A standard dose (10 μg/kg/min) of dopamine was administered to assess myocardial responsiveness.
Compounds of the invention were administered by intravenous infusion or bolus […] administration, and the effects on cardiovascular parameters were determined.
Dose related effects of the test compound on blood pressure (BP), heart rate (HR), maximum change in left ventricular pressure with time (dP/dt max),% change in cardiac force (CF) and the increase in mean arterial blood pressure relative to controls (MABP) were compared to pretreatment control values, expressed as a% change and rated for activity.

In assay [2] the test system is adult mongrel dogs. As to the kind of experiment: renal vasodilating activity in anesthetized dogs. Type of assay: in vivo, dog (adult mongrel). The following applies: Canis lupus familiaris, renal vasodilator, relative to controls; for change in vivo at 1.2 mg/kg: dose 1.2 mg/kg intravenous; for change in vivo at 13.9 mg/kg / change in vivo at up to 13.9 mg/kg: dose 13.9 mg/kg intravenous. As to the method: Goldberg et al, J. Pharmacol. Exp. Ther., 163, 188 (1968), performed an investigation of the structural requirements for dopamine-like renal vasodilation of phenethylamines and apomorphine. The following procedure is a variation of the assay described in that report.
Adult mongrel dogs were anesthetized and surgically prepared for electromagnetic measurement of renal artery blood flow. A carotid artery was cannulated for measuring arterial blood pressure, and drugs were administered intravenously. Heart rate was monitored with a cardiotachometer. Renal vascular resistance was calculated as the ratio of mean arterial blood pressure/renal artery blood flow. Dopamine was infused intravenously at 3 μg/kg/min for ten minutes (at an infusion rate of about 1 ml/min) to determine responsiveness of each dog to renal dopamine receptor stimulation. Cumulative dose-response data were obtained by infusing a compound of this invention at progressively increasing (usually three-fold) infusion rates, each dose being infused for five minutes. The maximum % increase from pre-drug control in renal artery blood flow (or a decrease in renal vascular resistance) was determined for each infusion dose.
RBF values are percent change in renal blood flow. RVR values are percent change in renal vascular resistance. MABP and HR are percent changes in mean arterial blood pressure and heart rate, respectively, relative to controls.

Setting [3] is: read-out: MABP (mean arterial blood pressure).
[4] abbreviates: read-out: dP/dt (maximum change left ventricular pressure with time).
The mark [5] stands for this setting: read-out: RBF (renal blood flow).
Where [6] appears, read: read-out: RVR (renal vascular resistance).

Structures can show the parent of a compound that is named as a salt. Where two headings read alike, the source gives them in different places.

On to `COc1cc2c(C)nc(O)c(C(=O)NN)c2cc1OC` [AV], for which the change in vivo at 1.87 mg/kg was 89% in the assay with adult mongrel dogs [1] (read-out: CF (cardiac force)), 14% in the assay with adult mongrel dogs [1] (read-out: HR (heart rate)), -2% in the assay on adult mongrel dogs [1] (setting [3]) and 34% in the assay with adult mongrel dogs [1] (setting [4]). In addition, the change in vivo at 1.2 mg/kg was 1% in the assay with adult mongrel dogs [2] (read-out: HR (heart rate)), 5% in the assay on adult mongrel dogs [2] (setting [3]), 22% in the assay with adult mongrel dogs [2] (setting [5]) and -13% with adult mongrel dogs [2] (setting [6]).
As to `COc1cc2c(C)nc(O)c(CCC(=O)O)c2cc1OC` [Compound E, 4-β-Carboxyethyl-3-hydroxy-6,7-dimethoxy-1-methylisoquinoline], the change in vivo at 1.875 mg/kg in the assay with adult mongrel dogs [1] (read-out: CF (cardiac force)) is 75%; with adult mongrel dogs [1] (read-out: HR (heart rate)) it was 5%; with adult mongrel dogs [1] (setting [3]) it was -3%; with adult mongrel dogs [1] (setting [4]), 42%. For the same compound, the change in vivo at 13.9 mg/kg in the assay on adult mongrel dogs [2] (read-out: HR (heart rate)) is 11%; in the assay with adult mongrel dogs [2] (setting [3]), -7%; in the assay on adult mongrel dogs [2] (setting [5]) it was 7%. In addition, the change in vivo at up to 13.9 mg/kg in the assay on adult mongrel dogs [2] (setting [6]) was -13%.
Regarding `Cc1nc(O)c(CCC(=O)O)c2cc(O)c(O)cc12` [Compound G, 4-β-Carboxyethyl-3,6,7-trihydroxy-1-methyl-3-isoquinoline Hydrobromide], the change in vivo at 3.75 mg/kg was 82% in the assay with adult mongrel dogs [1] (read-out: CF (cardiac force)), 13% in the assay with adult mongrel dogs [1] (read-out: HR (heart rate)), -10% in the assay with adult mongrel dogs [1] (setting [3]) and 32% with adult mongrel dogs [1] (setting [4]). Also, the results for the change in vivo at 13.9 mg/kg in the assay on adult mongrel dogs [2] (read-out: HR (heart rate)), in the assay with adult mongrel dogs [2] (setting [3]) and with adult mongrel dogs [2] (setting [5]) were -3%, -5% and 11%, respectively. The change in vivo at up to 13.9 mg/kg in the assay on adult mongrel dogs [2] (setting [6]) is -14%.
On to `COC(=O)CCc1c(O)nc(C)c2c(OC)c(OC)c(OC)cc12` [Compound J, 4-carbomethoxyethyl-3-hydroxy-6,7,8-trimethoxy-1-methylisoquinoline], for which the change in vivo at 0.875 mg/kg in the assay on adult mongrel dogs [1] (read-out: CF (cardiac force)) is 22%; in the assay on adult mongrel dogs [1] (read-out: HR (heart rate)), 8%; in the assay on adult mongrel dogs [1] (setting [3]), -4%; with adult mongrel dogs [1] (setting [4]), 20%. For the same compound, the change in vivo at 13.9 mg/kg in the assay on adult mongrel dogs [2] (setting [3]) was -1%; with adult mongrel dogs [2] (setting [5]), 18%. Further, the change in vivo at up to 13.9 mg/kg in the assay on adult mongrel dogs [2] (setting [6]) was -23%.
On to `COC(=O)CCc1c(O)ncc2cc(OC)c(OC)cc12` [Compound Q, 4-(β-Carbomethoxyethyl)-3-hydroxy-6,7-dimethoxyisoquinoline], for which the change in vivo at 0.875 mg/kg is 53% in the assay with adult mongrel dogs [1] (read-out: CF (cardiac force)), 7% in the assay with adult mongrel dogs [1] (read-out: HR (heart rate)), -4% in the assay with adult mongrel dogs [1] (setting [3]) and 24% in the assay with adult mongrel dogs [1] (setting [4]). The change in vivo at 13.9 mg/kg with adult mongrel dogs [2] (setting [5]) turned out to be 42%. For the same compound, the change in vivo at up to 13.9 mg/kg in the assay on adult mongrel dogs [2] (setting [6]) is -23%.
For the compound `COc1ccc2cc(O)ncc2c1OC` [D], the change in vivo at 8.75 mg/kg with adult mongrel dogs [1] (read-out: CF (cardiac force)) was 60%; in the assay on adult mongrel dogs [1] (read-out: HR (heart rate)) it was 13%; in the assay with adult mongrel dogs [1] (setting [3]) it was -7%; in the assay on adult mongrel dogs [1] (setting [4]), 34%. Moreover, the change in vivo at 13.9 mg/kg is 3% in the assay with adult mongrel dogs [2] (read-out: HR (heart rate)), -11% with adult mongrel dogs [2] (setting [3]) and 21% in the assay on adult mongrel dogs [2] (setting [5]). Moreover, the change in vivo at up to 13.9 mg/kg in the assay with adult mongrel dogs [2] (setting [6]) was -27%.
In the case of `COc1cc2cc(O)nc(C)c2c(OC)c1OC` [H], the change in vivo at 0.875 mg/kg in the assay on adult mongrel dogs [1] (read-out: CF (cardiac force)) is 76%; with adult mongrel dogs [1] (read-out: HR (heart rate)), 13%; with adult mongrel dogs [1] (setting [3]), -2%; with adult mongrel dogs [1] (setting [4]) it was 45%. For the same compound, the change in vivo at 13.9 mg/kg in the assay with adult mongrel dogs [2] (read-out: HR (heart rate)) was 20%; in the assay on adult mongrel dogs [2] (setting [3]), -12%; in the assay on adult mongrel dogs [2] (setting [5]), 41%. Also, the change in vivo at up to 13.9 mg/kg in the assay on adult mongrel dogs [2] (setting [6]) is -38%.
With `CCc1nc(O)c(CCC(=O)OC)c2cc(OC)c(OC)cc12` [K], the change in vivo at 0.875 mg/kg is 47% in the assay on adult mongrel dogs [1] (read-out: CF (cardiac force)), 10% in the assay on adult mongrel dogs [1] (read-out: HR (heart rate)), -3% in the assay with adult mongrel dogs [1] (setting [3]) and 33% in the assay with adult mongrel dogs [1] (setting [4]). In the assay on adult mongrel dogs [2] (setting [5]), the change in vivo at 13.9 mg/kg was 28%. Further, the change in vivo at up to 13.9 mg/kg with adult mongrel dogs [2] (setting [6]) is -28%.
For `COC(=O)C(C)Cc1c(O)nc(C)c2cc(OC)c(OC)cc12` (centres unmarked) [O], the change in vivo at 1.875 mg/kg with adult mongrel dogs [1] (read-out: CF (cardiac force)) is 100%; in the assay on adult mongrel dogs [1] (read-out: HR (heart rate)), 21%; with adult mongrel dogs [1] (setting [3]), 0%; in the assay with adult mongrel dogs [1] (setting [4]) it was 67%. Also, in the assay with adult mongrel dogs [2] (setting [5]), the change in vivo at 13.9 mg/kg was determined as 15%. Moreover, the change in vivo at up to 13.9 mg/kg in the assay on adult mongrel dogs [2] (setting [6]) was -18%.
On to `COC(=O)Cc1c(O)nc(C)c2cc(OC)c(OC)cc12` [W], for which the change in vivo at 0.875 mg/kg in the assay with adult mongrel dogs [1] (read-out: CF (cardiac force)) was 42%; with adult mongrel dogs [1] (read-out: HR (heart rate)), 6%; in the assay with adult mongrel dogs [1] (setting [3]), -1%; in the assay on adult mongrel dogs [1] (setting [4]), 28%. The change in vivo at 13.9 mg/kg with adult mongrel dogs [2] (setting [5]) stood at 64%. The change in vivo at up to 13.9 mg/kg in the assay on adult mongrel dogs [2] (setting [6]) was -62%.
